Experimental data reported in ChEMBL document CHEMBL5131397, “Discovery and Optimization of Pyrazole Amides as Inhibitors of ELOVL1” (J Med Chem, 2021).
Calls of active or inactive are those of the source. No cut-off for these calls is given here.

Experiments:
[1] = Oral bioavailability in Sprague-Dawley rat at 3 mg/kg upto 24 hrs by LC/MS/MS analysis; format: ADME, organism-based; details: in vivo
[2] = molecular target: Voltage-gated inwardly rectifying potassium channel KCNH2 (Homo sapiens, UniProt Q12809); assay: Inhibition of human ERG by patch-clamp assay; format: toxicity
Sequence of Voltage-gated inwardly rectifying potassium channel KCNH2 (Q12809 whole entry): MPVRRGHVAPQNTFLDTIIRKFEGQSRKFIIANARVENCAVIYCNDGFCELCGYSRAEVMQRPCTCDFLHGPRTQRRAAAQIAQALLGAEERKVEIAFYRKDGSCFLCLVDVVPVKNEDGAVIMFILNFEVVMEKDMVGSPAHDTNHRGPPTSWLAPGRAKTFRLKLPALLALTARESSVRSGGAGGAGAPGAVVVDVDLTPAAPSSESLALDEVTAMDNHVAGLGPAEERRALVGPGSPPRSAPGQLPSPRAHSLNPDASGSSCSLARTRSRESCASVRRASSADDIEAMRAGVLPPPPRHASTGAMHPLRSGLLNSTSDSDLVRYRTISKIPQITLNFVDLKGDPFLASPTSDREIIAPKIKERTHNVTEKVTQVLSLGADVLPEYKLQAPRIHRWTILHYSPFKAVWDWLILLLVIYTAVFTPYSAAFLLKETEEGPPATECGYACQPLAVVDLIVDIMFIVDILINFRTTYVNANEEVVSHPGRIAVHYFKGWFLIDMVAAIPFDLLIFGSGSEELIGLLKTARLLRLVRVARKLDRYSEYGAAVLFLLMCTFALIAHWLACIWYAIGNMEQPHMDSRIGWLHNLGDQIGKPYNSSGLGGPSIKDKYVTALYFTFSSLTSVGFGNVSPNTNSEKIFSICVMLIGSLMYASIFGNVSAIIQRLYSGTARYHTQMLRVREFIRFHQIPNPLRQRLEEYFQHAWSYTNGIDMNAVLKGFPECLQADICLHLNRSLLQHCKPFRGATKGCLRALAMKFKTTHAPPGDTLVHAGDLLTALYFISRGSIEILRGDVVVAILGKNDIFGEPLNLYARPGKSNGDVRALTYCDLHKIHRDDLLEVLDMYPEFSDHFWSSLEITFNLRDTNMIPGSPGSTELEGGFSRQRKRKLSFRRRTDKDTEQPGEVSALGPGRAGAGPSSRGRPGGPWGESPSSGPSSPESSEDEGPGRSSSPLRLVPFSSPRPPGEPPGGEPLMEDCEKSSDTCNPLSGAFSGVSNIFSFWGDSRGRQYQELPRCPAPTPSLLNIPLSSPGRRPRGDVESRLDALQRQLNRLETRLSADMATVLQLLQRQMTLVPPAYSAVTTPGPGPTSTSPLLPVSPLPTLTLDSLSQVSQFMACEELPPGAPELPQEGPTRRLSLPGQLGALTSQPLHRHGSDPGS

[3] = molecular target: T1, Very long chain fatty acid elongase 1 (Homo sapiens, UniProt Q9BW60); assay: Inhibition of ELOVL1 in human HEK2936E cells assessed as reduction of C26:0 LPC synthesis incubated for 48 hrs by cellular assay; format: cell-based
T1 sequence (Q9BW60 whole entry): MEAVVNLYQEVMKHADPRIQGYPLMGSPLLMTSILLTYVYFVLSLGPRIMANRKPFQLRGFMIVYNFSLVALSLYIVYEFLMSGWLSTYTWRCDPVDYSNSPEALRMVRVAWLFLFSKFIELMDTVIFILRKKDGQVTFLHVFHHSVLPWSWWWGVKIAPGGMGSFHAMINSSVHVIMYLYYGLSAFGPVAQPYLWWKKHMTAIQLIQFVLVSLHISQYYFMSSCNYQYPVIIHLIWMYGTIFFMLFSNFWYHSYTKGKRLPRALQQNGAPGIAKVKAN

[4] = Intrinsic clearance in human hepatocytes assessed per million cells; format: ADME, cell-based, Hepatocyte; details: read-out: CLH
[5] = Clearance in mouse at 1 mg/kg, iv upto 48 hrs by LC/MS/MS analysis; format: ADME, organism-based; details: in vivo
[6] = Clearance in Beagle dog at 0.5 mg/kg, iv upto 48 hrs by LC/MS/MS analysis; format: ADME, organism-based, Canis lupus familiaris; details: in vivo
[7] = Half life in Beagle dog at 0.5 mg/kg, iv upto 48 hrs by LC/MS/MS analysis; format: ADME, organism-based, Canis lupus familiaris; details: in vivo
[8] = Tmax in Beagle dog at 3 mg/kg, po upto 24 hrs by LC/MS/MS analysis; format: ADME, organism-based, Canis lupus familiaris; details: in vivo
[9] = Plasma protein binding in rat at 5 uM; format: ADME, cell-free; details: read-out: PPB (converted)
[10] = molecular target: T2, Serine/threonine-protein kinase TNNI3K (Homo sapiens) (UniProt Q59H18); assay: Inhibition of TNNI3K (unknown origin) at 10 uM
T2 sequence (whole entry): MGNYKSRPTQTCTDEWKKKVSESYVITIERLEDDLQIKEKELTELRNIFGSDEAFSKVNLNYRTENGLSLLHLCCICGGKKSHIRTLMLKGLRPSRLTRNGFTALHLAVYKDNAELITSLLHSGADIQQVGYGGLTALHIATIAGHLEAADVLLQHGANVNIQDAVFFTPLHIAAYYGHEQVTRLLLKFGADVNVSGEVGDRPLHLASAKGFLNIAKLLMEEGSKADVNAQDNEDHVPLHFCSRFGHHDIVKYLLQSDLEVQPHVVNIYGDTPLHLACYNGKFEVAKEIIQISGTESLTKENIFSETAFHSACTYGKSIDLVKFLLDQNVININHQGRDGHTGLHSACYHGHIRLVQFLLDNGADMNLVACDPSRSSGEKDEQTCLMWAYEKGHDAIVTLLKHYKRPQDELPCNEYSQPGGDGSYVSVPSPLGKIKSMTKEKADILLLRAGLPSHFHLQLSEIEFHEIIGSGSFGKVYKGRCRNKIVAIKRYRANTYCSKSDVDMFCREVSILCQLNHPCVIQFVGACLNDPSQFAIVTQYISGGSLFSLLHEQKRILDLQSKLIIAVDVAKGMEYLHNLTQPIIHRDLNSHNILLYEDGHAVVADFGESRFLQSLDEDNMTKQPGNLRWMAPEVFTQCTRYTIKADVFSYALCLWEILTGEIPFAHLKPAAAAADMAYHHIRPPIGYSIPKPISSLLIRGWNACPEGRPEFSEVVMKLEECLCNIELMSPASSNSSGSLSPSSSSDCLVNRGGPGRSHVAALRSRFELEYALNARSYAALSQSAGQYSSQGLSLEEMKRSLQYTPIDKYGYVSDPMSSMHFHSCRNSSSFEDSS

[11] = molecular target: T1, Very long chain fatty acid elongase 1; assay: Inhibition of ELOVL1 in CALD patient-derived human fibroblast assessed as reduction of C26:0 VLCFA synthesis incubated for 48 hrs by cellular assay; format: cell-based
[12] = molecular target: T1, Very long chain fatty acid elongase 1; assay: Inhibition of ELOVL1 in CALD patient-derived human lymphocyte assessed as reduction of C26:0 VLCFA synthesis incubated for 48 hrs by cellular assay; format: cell-based
[13] = molecular target: T3, Very long chain fatty acid elongase 1 (Homo sapiens) (UniProt Q9BW60); assay: Inhibition of ELOVL-1 in human HEK2936E cells assessed as reduction in C26:0 lysophosphatidyl choline synthesis at 100 nM in presence of 13C-labeled acetate measured after 48 hrs; format: cell-based
T3 sequence (whole entry): T1 sequence (Q9BW60 whole entry)

[14] = Reduction of C26:0 /C16:0 LPC level in ABCD1 KO mouse blood at 5 mg/kg, po qd for 8 months by LC-MS/MS analysis relative to control; format: functional; design: scale not given: the % may be the effect or the level left; details: 5840 h
[15] = test system: Mus musculus; assay: Reduction in C26:0/C16:0 LPC level in normal diet fed ABCD1 knock out mouse blood administered orally qd measured after 14 day by LC-MS/MS analysis; format: functional, tissue-based; details: route po, DDE = dose-dependent effect
[16] = Reduction in C26:0/C16:0 LPC level in wild-type Sprague-Dawley rat at 100 mg/kg, po qd treated for 7 days by LC-MS/MS analysis; format: functional; design: scale not given: the % may be the effect or the level left; details: time 7 day
[17] = Reduction in C26:0/C16:0 LPC level in ABCD1 knock out mouse CNS at 1 mg/kg, po qd measured after 3 months of dosing by LC-MS/MS analysis; format: functional; design: scale not given: the % may be the effect or the level left; details: 2190 h
[18] = Reduction in C26:0/C16:0 LPC level in ABCD1 knock out mouse CNS at 8 mg/kg, po qd measured after 6 months of dosing by LC-MS/MS analysis; format: functional; design: scale not given: the % may be the effect or the level left; details: 4380 h
[19] = Reduction in C26:0 LPC level in ABCD1 knock out mouse CNS at 4 mg/kg, po qd measured after 6 months of dosing by LC-MS/MS analysis; format: functional; design: scale not given: the % may be the effect or the level left; details: 4380 h
[20] = Reduction in C26:0 LPC level in ABCD1 knock out mouse CNS at 16 mg/kg, po qd measured after 6 months of dosing by LC-MS/MS analysis; format: functional; design: scale not given: the % may be the effect or the level left; details: 4380 h
[21] = test system: Mus musculus; assay: Reduction in C24:0/C16:0 LPC level in ABCD1 knock out mouse CNS at 1 to 10 mg/kg, po qd measured after 3 months of dosing by LC-MS/MS analysis; format: functional, organism-based; details: dose 1-10 mg/kg
[22] = Toxicity in Sprague-Dawley rat assessed as ocular hyperplasia at 5 mg/kg/day, po administered for 8 weeks by microscopic observation analysis; format: organism-based; details: in vivo, 1344 h
[23] = Toxicity in Sprague-Dawley rat assessed as ocular inflammation at 5 mg/kg/day, po administered for 8 weeks by microscopic observation analysis; format: organism-based; details: in vivo, 1344 h
[24] = Toxicity in Cynomolgus monkey assessed as ataxia at 50 mg/kg/day, po administered for 14 days; format: organism-based, Macaca fascicularis; details: in vivo, 336 h, time 14 day
[25] = Toxicity in Cynomolgus monkey assessed as skin lesions at 5 to 50 mg/kg/day, po administered for 14 days; format: organism-based, Macaca fascicularis; details: in vivo, 336 h, dose 5-50 mg/kg/day, time 14 day
[26] = Toxicity in Cynomolgus monkey assessed as dry and red scaly areas on face at 5 to 50 mg/kg/day, po administered for 14 days by macroscopic observation analysis; format: organism-based, Macaca fascicularis; details: in vivo, 336 h, dose 5-50 mg/kg/day, time 14 day

## O=C(Nc1ccn(-c2ccnc(F)c2)n1)C1(c2ccccc2F)CC1
[1]
  F: 66%
[2]
  IC50: > 30 µM
[3]
  IC50: 13 nM
[4]
  hepatocyte CLint: < 4 µL/min/1e6 cells
[5]
  clearance: 10.7 mL/min/kg
[6]
  clearance: 30.4 mL/min/kg
[7]
  half-life: 210 min
[8]
  Tmax: 30 min
[9]
  fraction unbound at 5 µM: 0.071
[10]
  inhibition: > 50%
[11]
  IC50: 20 nM
[12]
  IC50: 15 nM
[13]
  inhibition: Active
[14]
  Activity: 60%
[15]
  Activity: Dde
[16]
  Activity: 77%
[17]
  Activity: 25%
[18]
  Activity: 54%
[19]
  Activity: 57%
[20]
  Activity: 51%
[21]
  Activity: Active
[22]
  Activity: Toxic
[23]
  Activity: Toxic
[24]
  Activity: Toxic
[25]
  Activity: Toxic
[26]
  Activity: Toxic
